How the values were obtained:
[1] = %Unchanged aliskiren in urine following 10 day repeated oral administration of [14C] aliskiren hemifumarate at 100 mg.Kg-1 level studied in rat; assay type: ADME, organism-based, Albino HAN:WIST; conditions: in vivo, 240 h
CYP2D6 = CYP2D6 (Homo sapiens, UniProt P10635); experiment: Inhibition of CYP2D6 in human liver microsomes from 10 healthy donors at 200 uM aliskiren (SPP100); assay type: ADME, Microsome; design: conc 200 uM; conditions: probe bufuralol (1'-hydroxylation)
CYP2D6, sequence (P10635 whole entry): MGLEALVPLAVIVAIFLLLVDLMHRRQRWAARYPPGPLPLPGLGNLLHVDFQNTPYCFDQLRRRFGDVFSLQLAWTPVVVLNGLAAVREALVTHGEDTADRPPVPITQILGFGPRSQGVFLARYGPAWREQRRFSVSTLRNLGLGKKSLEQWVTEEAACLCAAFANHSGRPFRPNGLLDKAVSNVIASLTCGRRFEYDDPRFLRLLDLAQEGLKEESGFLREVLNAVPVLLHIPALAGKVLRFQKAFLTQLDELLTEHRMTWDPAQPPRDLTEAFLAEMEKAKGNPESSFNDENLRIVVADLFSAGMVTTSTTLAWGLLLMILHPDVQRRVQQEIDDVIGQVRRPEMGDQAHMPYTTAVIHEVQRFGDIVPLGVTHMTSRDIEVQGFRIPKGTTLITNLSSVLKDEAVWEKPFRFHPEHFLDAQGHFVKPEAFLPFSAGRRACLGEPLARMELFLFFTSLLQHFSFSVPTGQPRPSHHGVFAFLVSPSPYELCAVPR

CYP2A6 = molecular target: T1, CYP2A6 (Homo sapiens, UniProt P11509); experiment: Inhibitory activity of 200 uM SPP100 on 34 Pmoles of cDNA-derived CYP2A6 enzyme in microsome prepared from human lymphoblastoid cell line; assay type: ADME, microsomes; design: conc 200 uM, interact cpd conc 3 uM; conditions: probe coumarine
T1 sequence (P11509 whole entry): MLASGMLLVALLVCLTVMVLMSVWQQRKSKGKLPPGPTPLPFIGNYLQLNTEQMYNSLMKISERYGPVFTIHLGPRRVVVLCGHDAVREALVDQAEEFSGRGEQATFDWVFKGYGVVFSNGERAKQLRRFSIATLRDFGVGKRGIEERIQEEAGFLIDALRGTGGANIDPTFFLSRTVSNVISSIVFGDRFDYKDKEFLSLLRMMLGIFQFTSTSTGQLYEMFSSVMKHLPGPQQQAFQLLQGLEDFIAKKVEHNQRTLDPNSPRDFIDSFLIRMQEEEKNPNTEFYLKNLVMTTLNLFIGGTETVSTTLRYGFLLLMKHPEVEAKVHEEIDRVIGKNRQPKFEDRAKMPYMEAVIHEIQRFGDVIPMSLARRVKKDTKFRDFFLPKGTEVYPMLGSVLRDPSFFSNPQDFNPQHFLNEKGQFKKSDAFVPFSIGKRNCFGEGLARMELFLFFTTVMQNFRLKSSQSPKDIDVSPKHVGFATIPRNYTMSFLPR

[2] = Terminal elimination half-life of SPP100 following single oral dose of SPP100 300 mg capsule studied in healthy human; assay type: ADME, organism-based; conditions: plasma
CYP2C9 = CYP2C9 (Homo sapiens, UniProt P11712); experiment: Inhibition of CYP2C9 in human liver microsomes from 10 healthy donors at 200 uM aliskiren (SPP100); assay type: ADME, Microsome; design: conc 200 uM; conditions: probe S-warfarin (7-hydroxylation)
CYP2C9, sequence (P11712 whole entry): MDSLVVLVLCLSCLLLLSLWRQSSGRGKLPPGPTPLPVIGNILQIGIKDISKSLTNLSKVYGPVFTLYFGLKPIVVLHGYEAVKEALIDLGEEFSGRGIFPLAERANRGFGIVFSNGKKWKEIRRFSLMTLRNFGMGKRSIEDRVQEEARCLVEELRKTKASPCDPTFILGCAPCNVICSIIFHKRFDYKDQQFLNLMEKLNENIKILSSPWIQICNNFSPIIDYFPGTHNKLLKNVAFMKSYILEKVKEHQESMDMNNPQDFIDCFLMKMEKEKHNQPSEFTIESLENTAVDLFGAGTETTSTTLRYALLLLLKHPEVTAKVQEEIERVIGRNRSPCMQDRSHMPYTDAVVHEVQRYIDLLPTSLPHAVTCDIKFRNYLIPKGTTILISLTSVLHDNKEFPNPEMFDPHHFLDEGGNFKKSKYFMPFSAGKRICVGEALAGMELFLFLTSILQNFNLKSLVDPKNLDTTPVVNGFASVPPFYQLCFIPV

[3] = AUC of SPP100 following single oral dose of [14C] aliskiren hemifumarate at 3 mg.Kg-1 level in marmoset; assay type: ADME, organism-based, Callithrix jacchus, Plasma; conditions: in vivo
[4] = Excretion of radioactivity (0-96h) in urine following single oral dose of 100 mg.Kg-1 [14C] aliskiren hemifumarate in rat; assay type: ADME, organism-based, Albino HAN:WIST; conditions: in vivo
[5] = Excretion of radioactivity (24-48h) in urine following single intravenous dose of 10 mg.Kg-1 [14C] aliskiren hemifumarate in mouse; assay type: ADME, organism-based, TgRasH2; conditions: in vivo
[6] = Excretion (0-24h) of radioactivity in faeces following oral administration of [14C] aliskiren hemifumarate at 3 mg.Kg-1 level in marmoset; assay type: ADME, organism-based, Callithrix jacchus, Feces; conditions: in vivo
[7] = Excretion of radioactivity (24-48h) in urine following single oral dose of 500 mg.Kg-1 [14C] aliskiren hemifumarate in mouse; assay type: ADME, organism-based, TgRasH2; conditions: in vivo
[8] = Concentration of radioactivity in carcass following oral administration of [14C] aliskiren hemifumarate at 100 mg.Kg-1 level measured on day 7 in rat; assay type: ADME, organism-based, Lister-Hooded; conditions: in vivo
Cytochrome P450 2E1 = Cytochrome P450 2E1 (Homo sapiens, UniProt P05181); experiment: Metabolic clearance (ul.min.nmol-1 CYP) of aliskiren hemifumarate for CYP2E1 was determined in human liver microsome incubated with [14C]SPP100 hemifumarate; assay type: ADME; conditions: microsomes
Cytochrome P450 2E1, sequence (P05181 whole entry): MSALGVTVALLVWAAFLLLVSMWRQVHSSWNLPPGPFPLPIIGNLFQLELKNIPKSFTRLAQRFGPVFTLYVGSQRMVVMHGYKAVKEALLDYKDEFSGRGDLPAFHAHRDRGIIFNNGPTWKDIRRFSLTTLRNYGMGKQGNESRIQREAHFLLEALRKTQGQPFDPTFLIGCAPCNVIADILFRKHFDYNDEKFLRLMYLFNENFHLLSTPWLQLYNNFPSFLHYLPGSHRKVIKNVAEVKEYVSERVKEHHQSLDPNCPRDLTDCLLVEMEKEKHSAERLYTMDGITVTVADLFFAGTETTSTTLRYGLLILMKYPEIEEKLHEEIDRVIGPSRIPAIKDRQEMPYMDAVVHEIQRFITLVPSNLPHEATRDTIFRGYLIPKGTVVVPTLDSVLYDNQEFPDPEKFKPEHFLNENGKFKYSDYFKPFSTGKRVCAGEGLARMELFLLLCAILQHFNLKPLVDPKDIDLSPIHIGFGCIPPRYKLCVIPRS

[9] = Apparent terminal half-life (0-168h) of total radioactivity following single oral administration of [14C] aliskiren hemifumarate at 3 mg.Kg-1 level in marmoset; assay type: ADME, organism-based, Callithrix jacchus, Plasma; conditions: in vivo
[10] = Mean excretion of radioactivity (48-72h) in urine and faeces following single oral dose of 500 mg.Kg-1 [14C] aliskiren hemifumarate in mouse; assay type: ADME, organism-based, TgRasH2, Urine/Feces; conditions: in vivo
[11] = % of radioactivity (24h) recovered in faeces following single intravenous administration of 10 mg.Kg-1 [14C] aliskiren hemifumarate in male rat; assay type: ADME, organism-based, HAN:WIST(SPF), Feces; conditions: in vivo
[12] = Excretion of radioactivity (0-24h) in urine following single oral dose of 500 mg.Kg-1 [14C] aliskiren hemifumarate in mouse; assay type: ADME, organism-based, TgRasH2; conditions: in vivo
[13] = % of radioactivity (48h) recovered in bile of receiver rat following duodenal infusion of radioactivity through bile from donor rat treated with single intravenous administration of 10 mg.Kg-1 [14C] aliskiren hemifumarate; assay type: ADME, organism-based, HAN:WIST(SPF); conditions: in vivo
[14] = % of radioactivity (48h) recovered in faeces of receiver rat following duodenal infusion of radioactivity through bile from donor rat treated with single intravenous administration of 10 mg.Kg-1 [14C] aliskiren hemifumarate; assay type: ADME, organism-based, HAN:WIST(SPF), Feces; conditions: in vivo
[15] = Concentration of radioactivity in the brown fat following repeated oral administration of [14C] aliskiren hemifumarate at 100 mg.Kg-1 level studied at 24h after 3rd dose in rat; assay type: ADME, organism-based, Albino HAN:WIST, Brown adipose tissue; conditions: in vivo
[16] = Cmax normalised (0-168h) of total radioactivity following single intravenous administration of [14C] aliskiren hemifumarate at 1 mg.Kg-1 level in marmoset; assay type: ADME, organism-based, Callithrix jacchus, Plasma; conditions: in vivo
[17] = % of radioactivity (24h) recovered in bile following single intravenous administration of 10 mg.Kg-1 [14C] aliskiren hemifumarate in male rat; assay type: ADME, organism-based, HAN:WIST(SPF); conditions: in vivo
[18] = Mean excretion of radioactivity (0-24h) in urine and faeces following single intravenous dose of 10 mg.Kg-1 [14C] aliskiren hemifumarate in rat; assay type: ADME, organism-based, Albino HAN:WIST, Urine/Feces; conditions: in vivo
[19] = Tmax (0-96h) of total radioactivity following oral administration of [14C] aliskiren hemifumarate at 100 mg.Kg-1 level in rat; assay type: ADME, organism-based, Albino HAN:WIST, Plasma; conditions: in vivo
[20] = AUC (0-96h) of total radioactivity following oral administration of [14C] aliskiren hemifumarate at 100 mg.Kg-1 level in rat; assay type: ADME, organism-based, Albino HAN:WIST, Plasma; conditions: in vivo
[21] = Cmax of aliskiren hemifumarate following 2 week oral dosing of aliskiren hemifumarate at 10 mg.Kg-1 level studied on day 1 in female Callithrix jacchus; assay type: ADME, organism-based; conditions: marmoset, plasma
[22] = AUC(0-24)/dose of aliskiren hemifumarate following repeated oral administration of [14C] aliskiren hemifumarate at 100 mg.Kg-1 level studied in rat; assay type: ADME, organism-based, Albino HAN:WIST, Plasma; conditions: in vivo
[23] = AUC (0-24h)/dose of aliskiren hemifumarate following 4 week oral dietary dosing of aliskiren hemifumarate at 1500 mg.Kg-1 level in female mouse; assay type: ADME, organism-based, CB6F1-TGrasH2, Plasma; conditions: in vivo
[24] = Cmax of aliskiren hemifumarate following 4 week oral dietary dosing of aliskiren hemifumarate at 1500 mg.Kg-1 level in male mouse; assay type: ADME, organism-based; conditions: CB6F1-TGrasH2, mouse, in vivo
[25] = Cmax/dose of aliskiren hemifumarate following 4 week oral dietary dosing of aliskiren hemifumarate at 1500 mg.Kg-1 level in male mouse; assay type: ADME, organism-based, CB6F1-TGrasH2; conditions: in vivo, 672 h
[26] = Tmax of aliskiren hemifumarate following 8 day once-daily dosing of SPP100B oral solution at 80 mg level studied on day 8 in men; assay type: ADME, organism-based; conditions: male, human, plasma
hERG (KCNH2) = hERG (KCNH2) (Homo sapiens, UniProt Q12809); experiment: Effects of 100 uM aliskiren hemifumarate on current through cloned hERG channel expressed in human embryonic kidney cell; assay type: cell-based; design: conc 100 uM, dose level Intermediate; conditions: HEK293 cells that express cloned hERG channel, read-out: Inhibitory activity
hERG (KCNH2), sequence (Q12809 whole entry): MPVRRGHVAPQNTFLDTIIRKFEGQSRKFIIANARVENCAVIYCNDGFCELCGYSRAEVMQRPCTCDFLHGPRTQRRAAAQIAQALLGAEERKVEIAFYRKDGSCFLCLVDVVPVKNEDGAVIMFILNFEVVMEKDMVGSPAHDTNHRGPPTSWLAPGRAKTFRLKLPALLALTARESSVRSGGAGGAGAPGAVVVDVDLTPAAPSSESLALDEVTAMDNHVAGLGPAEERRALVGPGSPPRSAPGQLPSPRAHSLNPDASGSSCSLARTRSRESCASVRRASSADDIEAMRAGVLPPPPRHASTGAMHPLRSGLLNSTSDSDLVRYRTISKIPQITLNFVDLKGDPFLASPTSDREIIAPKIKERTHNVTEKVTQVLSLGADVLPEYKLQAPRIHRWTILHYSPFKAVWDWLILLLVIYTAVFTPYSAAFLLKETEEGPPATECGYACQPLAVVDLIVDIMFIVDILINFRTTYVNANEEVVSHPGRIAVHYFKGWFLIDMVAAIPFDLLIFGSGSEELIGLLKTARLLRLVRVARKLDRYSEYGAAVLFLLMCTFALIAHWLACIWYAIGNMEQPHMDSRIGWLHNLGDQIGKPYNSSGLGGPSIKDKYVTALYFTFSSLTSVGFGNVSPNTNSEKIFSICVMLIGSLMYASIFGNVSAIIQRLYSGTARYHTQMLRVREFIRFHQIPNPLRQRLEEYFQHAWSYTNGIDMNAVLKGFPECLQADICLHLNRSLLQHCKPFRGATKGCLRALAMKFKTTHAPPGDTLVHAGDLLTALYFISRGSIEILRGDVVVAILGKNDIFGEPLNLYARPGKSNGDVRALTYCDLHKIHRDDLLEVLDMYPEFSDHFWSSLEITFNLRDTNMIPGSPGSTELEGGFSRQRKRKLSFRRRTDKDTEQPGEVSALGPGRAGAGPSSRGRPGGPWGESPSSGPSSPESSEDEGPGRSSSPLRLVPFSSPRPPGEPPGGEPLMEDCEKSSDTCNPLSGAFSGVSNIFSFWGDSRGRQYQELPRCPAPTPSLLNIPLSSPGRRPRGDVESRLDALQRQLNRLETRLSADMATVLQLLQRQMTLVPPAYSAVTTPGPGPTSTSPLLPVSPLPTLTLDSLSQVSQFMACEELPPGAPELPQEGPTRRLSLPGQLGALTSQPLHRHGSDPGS

[27] = Tmax of aliskiren hemifumarate following single dosing of SPP100B oral solution at 80 mg level studied on day 1 in men; assay type: ADME, organism-based; conditions: male, human, plasma

For `COCCCOc1cc(C[C@@H](C[C@H](N)[C@@H](O)C[C@H](C(=O)NCC(C)(C)C(N)=O)C(C)C)C(C)C)ccc1OC`, which Compound recovery [1] is on record?
The Compound recovery was 43%.

And the inhibition at 200 µM (CYP2D6)?
Its inhibition at 200 µM is 32.9%.

And the inhibition at 200 µM (CYP2A6)?
The inhibition at 200 µM was 10.5%.

What about the half-life [2] of the same compound?
Its half-life is 2220 min.

And the inhibition at 200 µM (CYP2C9)?
Its inhibition at 200 µM is 32.1%.

What about the AUC [3] of the same compound?
Its AUC is 868 ng·h/mL.

What does the source list for `COCCCOc1cc(C[C@@H](C[C@H](N)[C@@H](O)C[C@H](C(=O)NCC([14CH3])([14CH3])C(N)=O)C(C)C)C(C)C)ccc1OC.O=C(O)/C=C/C(=O)O`?
Radiolabel recovery [4]: 0.69%; Radiolabel recovery [5]: 9.49%; Radiolabel recovery [6]: 84%; Radiolabel recovery [7]: 1.02%; Radiolabel recovery [8]: OUTCOME = Observed, VALUE = residues of radioactivity remained in the carcass at 7 days after dosing; CL (Cytochrome P450 2E1): 1.4 µL·min/nmol; t1/2 [9]: 45.5 h; Radiolabel recovery [10]: 9.33%; Radiolabel recovery [11]: 4.6%; Radiolabel recovery [12]: 0.47%; Radiolabel recovery [13]: 2.2%; Radiolabel recovery [14]: 26.6%; Radiolabel recovery [15]: OUTCOME = Detected; Cmax normalised [16]: 11.42 (umol/L)/(mg/kg); Radiolabel recovery [17]: 70%; Radiolabel recovery [18]: 58.6%; Tmax [19]: 15 min; Tmax ([19]; iv, 10 mg/kg): 4.98 min; AUC [20]: 5.38 µmol·h/L; AUC ([20]; iv, 10 mg/kg): 8.08 µmol·h/L

What does the source list for `COCCCOc1cc(C[C@@H](C[C@H](N)[C@@H](O)C[C@H](C(=O)NCC(C)(C)C(N)=O)C(C)C)C(C)C)ccc1OC.COCCCOc1cc(C[C@@H](C[C@H](N)[C@@H](O)C[C@H](C(=O)NCC(C)(C)C(N)=O)C(C)C)C(C)C)ccc1OC.O=C(O)/C=C/C(=O)O` [ALISKIREN FUMARATE]?
Cmax [21]: 3960 ng/mL; AUC(0-24) normalised [22]: 17.2 (nmol.h.L-1)/(mg/kg); AUC normalised [23]: 3.65 ((ng/mL).hours)/(mg/kg/day); Cmax [24]: 363 ng/mL; Cmax normalised [25]: 0.242 (ng/mL)/(mg/kg/day); Tmax [26]: 1.8 h; inhibition at 100 µM (hERG (KCNH2)): 6%; Tmax [27]: 2.8 h

Source: ChEMBL document CHEMBL3508693 (2016)
